Results on 15 compounds are retold here after patent US10882857B2, “Bicyclic compounds as ATX inhibitors” (Hoffmann-La Roche Inc., priority 2017, dated 2021).

Molecules are shown by their SMILES.

The IC50 is the concentration needed to halve the response being measured. A lower IC50 goes with greater potency in that assay.

For this assay, the target named is ATX (human His-tagged) (Homo sapiens (Human), UniProt Q13822). Briefly: Human ATX enzyme inhibition assay (fluorescence quenching, MR121 substrate). The class given is biochemical. The settings on record: 30 nM ATX, 1 μM MR121 substrate, 30° C. As to the method:
Human ATX Enzyme Inhibition Assay
ATX inhibition was measured by a fluorescence quenching assay using a specifically labeled substrate analogue (MR121 substrate). To obtain this MR121 substrate, BOC and TBS protected 6-amino-hexanoic acid (R)-3-({2-[3-(2-{2-[2-(2-amino-ethoxy)-ethoxy]-ethoxy-}ethoxy)-propionylamino]-ethoxy}-hydroxy-phosphoryloxy)-2-hydroxy-propyl ester (Ferguson et al., Org Lett 2006, 8 (10), 2023) was labeled with MR121 fluorophore (CAS 185308-24-1, 1-(3-carboxypropyl)-11-ethyl-1,2,3,4,8,9,10,11-octahydro-dipyrido[3,2-b:2′,3′-i]phenoxazin-13-ium) on the free amine of the ethanolamine side and then, after deprotection, subsequently with tryptophan on the side of the aminohexanoic acid.
Assay working solutions were made as follows:
Assay buffer (50 mM Tris-HCl, 140 mM NaCl, 5 mM KCl, 1 mM CaCl2, 1 mM MgCl2, 0.01% Triton-X-100, pH 8.0;
ATX solution: ATX (human His-tagged) stock solution (1.08 mg/mL in 20 mM bicine, pH 8.5, 0.15 M NaCl, 10% glycerol, 0.3% CHAPS, 0.02% NaN3), diluted to 1.4-2.5× final concentration in assay buffer;
MR121 substrate solution: MR121 substrate stock solution (800 μM MR121 substrate in DMSO), diluted to 2-5× final concentration in assay buffer.
Test compounds (10 mM stock in DMSO, 8 μL) were obtained in 384 well sample plates (Corning Costar #3655) and diluted with 8 μL DMSO. Row-wise serial dilutions were made by transferring 8 μL cpd solution to the next row up to row O. The compound and control solutions were mixed five times and 2 μL were transferred to 384 well assay plates (Corning Costar #3702). Then, 15 μL of 41.7 nM ATX solution was added (30 nM final concentration), mixed five times and then incubated for 15 minutes at 30° C. 10 μL of MR121 substrate solution was added (1 μM final concentration), mixed 30 times and then incubated for 15 minutes at 30° C.
Fluorescence was then measured every 2 minutes for 1 hour (Perkin Elmer plate: vision multimode reader); light intensity: 2.5%; exp. time: 1.4 sec, Filter: Fluo_630/690 nm) and IC50 values were calculated from these readouts.
With `CC(C)(C)C(=O)Nc1cc(C(F)(F)F)cnc1COC(=O)N1Cc2ccc(C(=O)N3CCC(S(N)(=O)=O)CC3)cc2C1` [Example 2.03, [3-(2,2-dimethylpropanoylamino)-5-(trifluoromethyl)pyridin-2-yl]methyl 5-(4-sulfamoylpiperidine-1-carbonyl)-1,3-dihydroisoindole-2-carboxylate], the IC50 worked out at 7 nM. Compound `NS(=O)(=O)C1CCN(C(=O)c2ccc3c(c2)CN(C(=O)c2cc(OCC4CCOCC4)nc(C4CC4)c2)C3)CC1` [Example 2.01, 1-[2-[2-cyclopropyl-6-(oxan-4-ylmethoxy)pyridine-4-carbonyl]-1,3-dihydroisoindole-5-carbonyl]piperidine-4-sulfonamide] yielded an IC50 of 10 nM. In turn, `O=C(c1cc(OCC2CCOCC2)nc(C2CC2)c1)N1Cc2ccc(C(=O)N3CCc4onc(O)c4C3)cc2C1` [Example 2.02, [2-[2-cyclopropyl-6-(oxan-4-ylmethoxy)pyridine-4-carbonyl]-1,3-dihydroisoindol-5-yl]-(3-hydroxy-6,7-dihydro-4H-[1,2]oxazolo[4,5-c]pyridin-5-yl)methanone] had an IC50 of 7 nM. In the case of `O=C(c1cc(OCC2CCOCC2)nc(C2CC2)c1)N1CCc2cc(C(=O)N3CCc4[nH]nnc4C3)ccc2C1` [Example 1, [2-[2-Cyclopropyl-6-(oxan-4-ylmethoxy)pyridine-4-carbonyl]-3,4-dihydro-1H-isoquinolin-6-yl]-(1,4,6,7-tetrahydrotriazolo[4,5-c]pyridin-5-yl)methanone], the IC50 is 2 nM. The compound `NS(=O)(=O)C1CCN(C(=O)c2cc3c(s2)CN(C(=O)c2cc(OCC4CCOCC4)nc(C4CC4)c2)C3)CC1` [Example 3.02, 1-[5-[2-cyclopropyl-6-(oxan-4-ylmethoxy)pyridine-4-carbonyl]-4,6-dihydrothieno[2,3-c]pyrrole-2-carbonyl]piperidine-4-sulfonamide] had an IC50 of 7 nM. Next, `CC(C)(C)C(=O)Nc1cc(C(F)(F)F)cnc1COC(=O)N1Cc2nc(C(=O)N3CCc4[nH]nnc4C3)oc2C1` [Example 4, [3-(2,2-Dimethylpropanoylamino)-5-(trifluoromethyl)pyridin-2-yl]methyl 2-(1,4,6,7-tetrahydrotriazolo[4,5-c]pyridine-5-carbonyl)-4,6-dihydropyrrolo[3,4-d][1,3]oxazole-5-carboxylate]: 1 nM. For `CC(C)(C)C(=O)Nc1cc(C(F)(F)F)cnc1COC(=O)N1Cc2ccc(C(=O)N3CCc4onc(O)c4C3)cc2C1` [Example 2.05, [3-(2,2-dimethylpropanoylamino)-5-(trifluoromethyl)pyridin-2-yl]methyl 5-(3-hydroxy-6,7-dihydro-4H-[1,2]oxazolo[4,5-c]pyridine-5-carbonyl)-1,3-dihydroisoindole-2-carboxylate], the IC50 was 4 nM. In turn, `O=C(c1cc(OCC2CCOCC2)nc(C2CC2)c1)N1Cc2nc(C(=O)N3CCc4c(O)noc4C3)oc2C1` [Example 3, [2-Cyclopropyl-6-(oxan-4-ylmethoxy)pyridin-4-yl]-[2-(3-hydroxy-5,7-dihydro-4H-[1,2]oxazolo[5,4-c]pyridine-6-carbonyl)-4,6-dihydropyrrolo[3,4-d][1,3]oxazol-5-yl]methanone] yielded an IC50 of 5 nM.

`CC(C)(C)C(=O)Nc1cc(C(F)(F)F)cnc1COC(=O)N1Cc2cc(C(=O)N3CCC(S(N)(=O)=O)CC3)sc2C1` [Example 4.02, [3-(2,2-Dimethylpropanoylamino)-5-(trifluoromethyl)pyridin-2-yl]methyl 2-(4-sulfamoylpiperidine-1-carbonyl)-4,6-dihydrothieno[2,3-c]pyrrole-5-carboxylate] registered an IC50 of 1 nM. `CC(C)(C)C(=O)Nc1cc(C(F)(F)F)cnc1COC(=O)N1Cc2nc(C(=O)N3CCC(S(N)(=O)=O)CC3)oc2C1` [Example 2.06, [3-(2,2-dimethylpropanoylamino)-5-(trifluoromethyl)pyridin-2-yl]methyl 2-(4-sulfamoylpiperidine-1-carbonyl)-4,6-dihydropyrrolo[3,4-d][1,3]oxazole-5-carboxylate] came in with an IC50 of 1 nM. `O=C(c1cc(OCC2CCOCC2)nc(C2CC2)c1)N1Cc2ccc(C(=O)N3CCc4c(O)noc4C3)cc2C1` [Example 2, [2-[2-Cyclopropyl-6-(oxan-4-ylmethoxy)pyridine-4-carbonyl]-1,3-dihydroisoindol-5-yl]-(3-hydroxy-5,7-dihydro-4H-[1,2]oxazolo[5,4-c]pyridin-6-yl)methanone] registered an IC50 of 24 nM. In the case of `CC(C)(C)C(=O)Nc1cc(C(F)(F)F)cnc1COC(=O)N1Cc2ccc(C(=O)N3CCc4c(O)noc4C3)cc2C1` [Example 2.04, [3-(2,2-dimethylpropanoylamino)-5-(trifluoromethyl)pyridin-2-yl]methyl 5-(3-hydroxy-5,7-dihydro-4H-[1,2]oxazolo[5,4-c]pyridine-6-carbonyl)-1,3-dihydroisoindole-2-carboxylate] it was 7 nM; in that of `CC(C)(C)C(=O)Nc1cc(C#N)c(Cl)cc1COC(=O)N1Cc2nc(C(=O)N3CCc4c(O)noc4C3)oc2C1` [Example 4.01, [5-chloro-4-cyano-2-(2,2-dimethylpropanoylamino)phenyl]methyl 2-(3-hydroxy-5,7-dihydro-4H-[1,2]oxazolo[5,4-c]pyridine-6-carbonyl)-4,6-dihydropyrrolo[3,4-d][1,3]oxazole-5-carboxylate], 7 nM.

The compound `O=C(c1cc(OCC2CCOCC2)nc(C2CC2)c1)N1Cc2nc(C(=O)N3CCc4[nH]nnc4C3)oc2C1` [Example 1.01, [2-cyclopropyl-6-(oxan-4-ylmethoxy)pyridin-4-yl]-[2-(1,4,6,7-tetrahydrotriazolo[4,5-c]pyridine-5-carbonyl)-4,6-dihydropyrrolo[3,4-d][1,3]oxazol-5-yl]methanone] came in with an IC50 of 2 nM. Consider `NS(=O)(=O)C1CCN(C(=O)c2nc3c(s2)CN(C(=O)c2cc(OCC4CCOCC4)nc(C4CC4)c2)C3)CC1` [Example 3.01, 1-[5-[2-cyclopropyl-6-(oxan-4-ylmethoxy)pyridine-4-carbonyl]-4,6-dihydropyrrolo[3,4-d][1,3]thiazole-2-carbonyl]piperidine-4-sulfonamide], for which the IC50 turned out to be 2 nM.
